The values that follow come from the supplement of paper PMC9103864.

The structures appear in SMILES notation. A value given as a limit tells only on which side of the number the result lay.

Test [1] deals with BMSC (primary human bone marrow mesenchymal stromal cells). Description: drug sensitivity score (DSS); higher = more sensitive.
The test system is the same in test [2]. The test can be described thus: absolute EC50 for viability; higher = less sensitive.

Turning to `Cn1nccc1Nc1nccc(-c2ccn([C@H](CO)c3ccc(Cl)c(F)c3)c(=O)c2)n1` [Ravoxertinib], the drug sensitivity score in test [1] is 0. Besides, in test [2], the “absolute EC50 for viability” value was over 10 µM.
On to `CNC(=O)c1cc(Oc2ccc(NC(=O)Nc3ccc(Cl)c(C(F)(F)F)c3)c(F)c2)ccn1` [Regorafenib], for which the drug sensitivity score in test [1] was 0.7. For the same compound, in test [2], the “absolute EC50 for viability” value is over 10 µM.
The corresponding values for `CCOC(=O)C1=CCCC[C@H]1S(=O)(=O)Nc1ccc(F)cc1Cl` [Resatorvid] are 0 and 9.93 µM.
The corresponding values for `CCOCc1nc2c(N)nc3ccccc3c2n1CC(C)(C)O` [Resiquimod] are 0 and over 10 µM.
In the case of `CN(C)Cc1ccc(S(=O)(=O)n2ccc(/C=C/C(=O)NO)c2)cc1` [Resminostat], in test [1], the drug sensitivity score is 6. Besides, in test [2], the “absolute EC50 for viability” value turned out to be 2.63 µM.
In test [1], `CN(C)C(=O)c1cc2cnc(Nc3ccc(N4CCNCC4)cn3)nc2n1C1CCCC1` [Ribociclib] registered a drug sensitivity score of 2.2. Moreover, the “absolute EC50 for viability” value in test [2] is over 10 µM.
In test [1], `CO[C@H]1C[C@@H]2CC[C@@H](C)[C@@](O)(O2)C(=O)C(=O)N2CCCC[C@H]2C(=O)O[C@H]([C@H](C)C[C@@H]2CC[C@@H](OP(C)(C)=O)[C@H](OC)C2)CC(=O)[C@H](C)/C=C(\C)[C@@H](O)[C@@H](OC)C(=O)[C@H](C)C[C@H](C)/C=C/C=C/C=C/1C` [Ridaforolimus] displayed a drug sensitivity score of 7.6. The “absolute EC50 for viability” value in test [2] was over 0.1 µM.
In test [1], `COc1cc(OC)c(/C=C/S(=O)(=O)Cc2ccc(OC)c(NCC(=O)O)c2)c(OC)c1` [Rigosertib] displayed a drug sensitivity score of 8.9. Moreover, in test [2], the “absolute EC50 for viability” value is over 10 µM.
`C[C@H]1CNCCCN1S(=O)(=O)c1cccc2cncc(F)c12` [Ripasudil] showed a drug sensitivity score in test [1] of 1.1. For the same compound, the “absolute EC50 for viability” value in test [2] was over 10 µM.
`C=CC(=O)Nc1cccc(Nc2nc(Nc3ccc(N4CCN(C(C)=O)CC4)cc3OC)ncc2C(F)(F)F)c1` [Rociletinib] gave a drug sensitivity score in test [1] of 5.8. The “absolute EC50 for viability” value in test [2] amounted to 2.86 µM.
For `O=C(CCCCCCNC(=O)c1cnc(N(c2ccccc2)c2ccccc2)nc1)NO` [Rocilinostat], in that order: 1.8 and over 10 µM.
In test [1], `C/C=C1\NC(=O)[C@H]2CSSCC/C=C/[C@H](CC(=O)N[C@H](C(C)C)C(=O)N2)OC(=O)[C@H](C(C)C)NC1=O` [Romidepsin] displayed a drug sensitivity score of 23.2. For the same compound, the “absolute EC50 for viability” value in test [2] came to 0.0097 µM.
As to `Cc1nc(C(=O)NCC(=O)O)c(O)c2ccc(Oc3ccccc3)cc12` [Roxadustat], the drug sensitivity score in test [1] stood at 0.5. Also, the “absolute EC50 for viability” value in test [2] is over 10 µM.
`CN(C)C[C@@H]1CCn2cc(c3ccccc32)C2=C(C(=O)NC2=O)c2cn(c3ccccc23)CCO1` [Ruboxistaurin] returned a drug sensitivity score in test [1] of 7. Further, the “absolute EC50 for viability” value in test [2] was 2.42 µM.
The corresponding values for `CNCc1ccc(-c2[nH]c3cc(F)cc4c3c2CCNC4=O)cc1` [Rucaparib] are 2.3 and over 10 µM.
Compound `N#CC[C@H](C1CCCC1)n1cc(-c2ncnc3[nH]ccc23)cn1` [Ruxolitinib] displayed a drug sensitivity score in test [1] of 0.2. Besides, the “absolute EC50 for viability” value in test [2] is over 10 µM.
For the compound `CC(C)N(CCCNC(=O)Nc1ccc(C(C)(C)C)cc1)C[C@H]1O[C@@H](n2cc(Br)c3c(N)ncnc32)[C@H](O)[C@@H]1O` [SGC0946], in test [1], the drug sensitivity score was found to be 2.1. Also, in test [2], the “absolute EC50 for viability” value is over 10 µM.
`COc1ccc(CCc2nc3cc(-c4c(C)noc4C)ccc3n2C[C@H](C)N2CCOCC2)cc1Cl` [SGC-CBP30] had a drug sensitivity score in test [1] of 2.1. Also, in test [2], the “absolute EC50 for viability” value was over 25 µM.
The corresponding values for `CN1CCC(CNc2ccc3ncc(-c4cccc(OC(F)(F)F)c4)n3n2)CC1` [SGI-1776] are 9.6 and 1.4 µM.
